Reference: US7671058B2, “N-(3,4-disubstituted phenyl) salicylamide derivatives” (Institute of Medicinal Molecular Design, Inc., priority 2006, dated 2010)

Assays:
NF-κB = NF-κB inhibition test: pNFκB-Luc luciferase reporter in U2-OS cells stimulated with human TNF α; type: cell-based; settings: human TNF α 10 ng/mL; for Inhibition Rate of NF-κB (%): compound 2 μM, 8 hours; for IC50: from inhibition rates at 1, 0.1, 0.01 and 0.001 μM, read-out: IC50 against activation of NF-κB
Description: (1) Transfection to U2-OS Cells and Inhibition Test of Activation
U2-OS cells were seeded at 2×10^4 cells/well in 96-well culture plate, and transfection was carried out using FuGENE 6 Transfection Reagent (Roche Diagnostics GmbH). The procedures of the transfection are shown below.
11 μg of reporter plasmid (pNFκB-Luc; Stratagene Corporation) and 1.1 μg of pCMV β (CLONTECH Laboratories, Inc.) were mixed in 1.1 mL of OPTI-MEM I medium (GIBCO BRL) (solution (A)).
[…] of FuGENE 6 Transfection Reagent was mixed in 1.1 mL of OPTI-MEM I medium (solution (B)).
(§1) The above solution (A) and solution (B) were mixed, let them stand for 15 minutes at room temperature, then, 8.8 mL of OPTI-MEM I medium was added and diluted.
To this transfection solution, U2-OS cell suspension (11 mL) in McCoy's 5A medium (GIBCO BRL) containing 10% Fetal Bovine Serum (FBS; GIBCO BRL) at […] was added and well mixed.
(§2) 0.2 mL of the above solution was dispensed into each well of 96-well culture plates, and incubated for 24 hours (37° C., 5% CO2).
After removal of 50 μL of medium from each well, 50 μL of McCoy's 5A medium (serum-free) containing compound of the present application was added to a final concentration of 0.01˜2 μM (0.001, 0.01, 0.1, 0.5, 1 or 2 μM), and the plates were incubated for 2 hours (37° C., 5% CO2).
10 μL of the McCoy's 5A medium (serum-free) containing human TNF α (PEPROTECH EC Ltd.) was added to each well to achieve a final concentration of 10 ng/mL, and incubated for 8 hours (37° C., 5% CO2).
(§3) Medium was completely removed and plates were preserved at −80° C. until measurements.
(§4) Cell lysates were prepared by adding 40 μL of Passive Lysis Buffer (Promega Corporation) to each well.
(§5) 10 μL of each lysate was transferred to 96-well white plates. 50 μL of PicaGene L.T.2.0 (TOYO INK MFG. CO., LTD.) was added to each well, then, luminescence was measured after leaving for 10 minutes at room temperature.
(§6) 10 μL of each lysate was transferred to 96-well black plates. 100 μL of Z Buffer (preparation method will be explained later) was added to each well, and fluorescence was measured immediately.
(§7) 10 μL of each lysate was transferred to 96-well clear plates. 200 μL of protein assay reagent prepared from the BCA Protein Assay Kit (Pierce Biotechnology, Inc.) was added to each well, and, absorbance was measured after incubation for 30 minutes at 37° C.
(§8) For measurements of luminescence, fluorescence, and absorbance, microplate reader GENios (TECAN G.M.B.H.) was used.
(3) Calculation of Inhibition Rate
Luminescence values that show the degree of activation by TNF α stimulation were normalized by β-gal values that show transfection efficiency. Using the normalized values, the following calculation was carried out using the luminescence values that increased by TNF α stimulation. Inhibition Rate(%)=[…] E: In the presence of the compound of the present application, increased luminescence values by TNF α stimulation C: Without the presence of the compound of the present application, increased luminescence values by TNF α, stimulation
The values of protein assay by BCA reagent were used for a simple assessment of cytotoxicity, and not used for the calculation of inhibition rates.
NF-κB Inhibition Rates are shown below. The values in parentheses in the table represent the concentration of the compound of the present application.
NF-κB inhibition rates where the concentrations of the compound of the present application were 1, 0.1, 0.01 and 0.001 μM were calculated, and the 50% inhibitory concentrations (IC50) of the compounds of the present application against activation of NF-κB were evaluated.

STAT6 = STAT6 inhibition test: (GLS)x8/pTA-Luc luciferase reporter in U2-OS cells stimulated with human IL-4; type: cell-based; settings: human IL-4 40 ng/mL; for Inhibition Rate of STAT6 (%): compound 2 μM, 8 hours; for IC50: from inhibition rates at 1, 0.1, 0.01 and 0.001 μM, read-out: IC50 against activation of STAT6
Description: (1) Construction of a STAT6 Reporter Plasmid
The Oligonucleotides (SEQ ID: 1, 2) containing two copies of STAT6 binding sequences (refer to J. Biol. Chem., vol. 276, No. 9, pp. 6675-6688 (2001).) were synthesized, and integrated into the enhancer region of the reporter plasmid pTA-Luc Vector (CLONTECH Laboratories, Inc.) at the restriction enzyme BgIII site.
When the oligonucleotide is integrated in positive direction into the plasmid, the upstream BglII site is not reconstructed. Therefore, STAT6 binding sequences can be increased by repeating integration of the oligonucleotide at the restriction enzyme BglII site.
In the present test, a plasmid including eight integrated STAT6 binding sequences was constructed and provided for the reporter assay as (GLS)x8/pTA-Luc. Confirmation of the sequences was carried out using an automated fluorescence sequencer (Model 310 (Applied Biosystems)).
(2) Transfection into U2-OS Cells and Inhibition Test for STAT6 Activation
U2-OS cells were seeded to at 2×10^4 cells/well in 96-well culture plates, and transfection was carried out using FuGENE 6 Transfection Reagent (Roche Diagnostics GmbH). The procedures of the transfection are shown below.
11 μg of reporter plasmid ((GLS)x8/pTA-Luc) and 1.1 μg of pCMV β (CLONTECH Laboratories, Inc.) were mixed in 1.1 mL of OPTI-MEM I medium (GIBCO BRL) (solution (A)).
33 μL of FuGENE 6 Transfection Reagent was mixed in 1.1 mL of OPTI-MEM I medium (solution (B)).
as §1
To this transfection solution, U2-OS cell suspension (11 mL) in McCoy's 5A medium (GIBCO BRL) containing 10% Fetal Bovine Serum (FBS; GIBCO BRL) at 2×10^5 cells/mL was added and well mixed.
as §2
After removal of 50 μL of medium from each well, 50 μL of McCoy's 5A medium (serum-free) containing compound, of the present application was added to a final concentration of 0.01˜2 μM (0.001, 0.01, 0.1, 0.5, 1 or 2 μM), and the plates were incubated for 2 hours (37° C., 5% CO2).
10 μL of the McCoy's 5A medium (serum-free) containing human IL-4 (R&D Systems, Inc) was added to each well to achieve a final concentration of 40 ng/mL, and incubated for 8 hours (37° C., 5% CO2).
as §3, §4, §5, §6, §7, §8
(4) Calculation of Inhibition Rate
Luminescence values that show the degree of activation by IL-4 stimulation were normalized by β-gal values that show transfection efficiency. Using the normalized values, the following calculations were carried out using the luminescence values increased by IL-4 stimulation. Inhibition Rate(%)=[…] E: In the presence of the compound of the present application, increased luminescence value by IL-4 stimulation C: Without the presence of the compound of the present application, increased luminescence value by IL-4 stimulation […]

Row | IC50 (NF-κB) [nM] | IC50 (STAT6) [nM] | SMILES | Inhibition Rate of NF-κB (%) (NF-κB) | Inhibition Rate of STAT6 (%) (STAT6)
1 | – | – | O=C1CCN(c2ccc(NC(=O)c3cc(Cl)ccc3O)cc2F)CC1 [compound 39] | 16 (2 μM) % | 46 (2 μM) %
2 | – | – | CN1CCN(c2ccc(NC(=O)c3cc(C#N)ccc3O)cc2F)CC1.Cl [compound 90] | 18 (2 μM) % | 11 (2 μM) %
3 | – | – | CN1CCN(c2ccc(NC(=O)c3ccc(F)cc3O)cc2F)CC1.Cl [compound 58] | 59 (2 μM) % | 70 (2 μM) %
4 | 12.2 | 6.37 | O=C(Nc1ccc(OC2CCNCC2)c(F)c1)c1cc(Cl)ccc1O [compound 31] | 92 (2 μM) % | 93 (2 μM) %
5 | – | – | CN1CCN(c2ccc(NC(=O)c3cc(C(F)(F)F)ccc3O)cc2F)CC1.Cl [compound 62] | 89 (2 μM) % | 96 (2 μM) %
6 | – | – | Cl.O=C(Nc1ccc(OC2CCNC2)c(F)c1)c1cc(Cl)ccc1O (stereo not shown) [compound 55] | 16 (2 μM) % | 35 (2 μM) %
7 | 11.7 | 18.3 | O=C(Nc1ccc(N2CCCNCC2)c(F)c1)c1cc(Br)ccc1O [compound 87] | 93 (2 μM) % | 91 (2 μM) %
8 | – | – | Cc1cc(NC(=O)c2cc(Cl)ccc2O)ccc1N1CCNCC1 [compound 23] | 11 (2 μM) % | 24 (2 μM) %
9 | 28.4 | 14.8 | Cl.O=C(Nc1ccc(OCC2CCCNC2)c(F)c1)c1cc(Cl)ccc1O (stereo not shown) [compound 49] | 87 (2 μM) % | 84 (2 μM) %
10 | 17.9 | 9 | CN1CCC(COc2ccc(NC(=O)c3cc(Cl)ccc3O)cc2F)CC1 [compound 51] | 86 (2 μM) % | 83 (2 μM) %
11 | 8.11 | 2.23 | O=C(Nc1ccc(N2CCCNCC2)c(F)c1)c1ccc(Cl)cc1O [compound 80] | 89 (2 μM) % | 91 (2 μM) %
12 | – | – | CC1CCC(C)N1c1ccc(NC(=O)c2cc(Cl)ccc2O)cc1F (stereo not shown) [compound 84] | 61 (2 μM) % | 83 (2 μM) %
13 | – | – | O=C(Nc1ccc(N2CCSCC2)c(F)c1)c1cc(Cl)ccc1O [compound 26] | 68 (2 μM) % | 95 (2 μM) %
14 | – | – | O=C(Nc1ccc(N2CCOCC2)c(C(F)(F)F)c1)c1cc(Cl)ccc1O [compound 3] | 30 (2 μM) % | 67 (2 μM) %
15 | – | – | CN1CCN(c2ccc(NC(=O)c3cc(Cl)ccc3O)cc2C#N)CC1 [compound 79] | 59 (2 μM) % | 59 (2 μM) %
16 | – | – | NC(=O)C1CCCN(c2ccc(NC(=O)c3cc(Cl)ccc3O)cc2F)C1 (stereo not shown) [compound 48] | 40 (2 μM) % | 42 (2 μM) %
17 | 66.5 | 105 | Cl.NC1CCN(c2ccc(NC(=O)c3cc(Cl)ccc3O)cc2C(F)(F)F)CC1 [compound 74] | 84 (2 μM) % | 80 (2 μM) %
18 | – | – | CN1CCCC(COc2ccc(NC(=O)c3cc(Cl)ccc3O)cc2F)C1 (stereo not shown) [compound 50] | 45 (2 μM) % | 43 (2 μM) %
19 | 9.74 | 3.79 | NC1CCN(c2ccc(NC(=O)c3cc(Cl)ccc3O)cc2F)CC1 [compound 66] | 92 (2 μM) % | 85 (2 μM) %
20 | 20 | 32.9 | Cl.O=C(Nc1ccc(N2CCCNCC2)c(C(F)(F)F)c1)c1cc(Cl)ccc1O [compound 76] | 94 (2 μM) % | 95 (2 μM) %
21 | – | – | O=C(Nc1ccc(N2CCN(C(=O)CCN3CCCCC3)CC2)c(F)c1)c1cc(Cl)ccc1O [compound 35] | 24 (2 μM) % | 26 (2 μM) %
